Measurements: ChEMBL document CHEMBL2074429, “ATP-dependent primary active transport of cysteinyl leukotrienes across liver canalicular membrane. Role of the ATP-dependent transport system for glutathione S-conjugates” (J Biol Chem, 1990)
One block for each molecule: values may come before it.

What was measured:
Assay type in all cases: functional, cell membranes, Plasma membrane vesicle
[1] = target: ATP-binding cassette sub-family C member 2 (Rattus norvegicus, UniProt Q63120); assay: (§1) TP_TRANSPORTER: uptake in liver plasma membrane vesicles of Wistar rat
[2] = target: T1, ATP-binding cassette sub-family C member 2 (ABCC2) (Rattus norvegicus, UniProt Q63120); assay: TP_TRANSPORTER: inhibition of LTC4 uptake (LTC4: 0.01 uM, Vinblastine: 100 uM) in liver plasma membrane vesicles of Wistar rat; set-up: scale not given: the % may be the effect or the level left; conditions: probe LTC4 (0.01 uM), read-out: Activity
[3] = target: T1, ATP-binding cassette sub-family C member 2 (ABCC2); assay: TP_TRANSPORTER: inhibition of LTC4 uptake (LTC4: 0.01 uM, Vincristine: 100 uM) in liver plasma membrane vesicles of Wistar rat; set-up: scale not given: the % may be the effect or the level left; conditions: probe LTC4 (0.01 uM), read-out: Activity
[4] = substrate: CCCCC/C=C\C\C=C/C=C/C=C/[C@@H](SC[C@@H](NC(=O)CC[C@H](N)C(=O)O)C(=O)NCC(=O)O)[C@@H](O)CCCC(=O)O; assay: as §1
[5] = substrate: CCCCC/C=C\C\C=C/C=C/C=C/[C@@H](SC[C@H](NC(C)=O)C(=O)O)[C@@H](O)CCCC(=O)O; assay: as §1
[6] = substrate: CCCCC/C=C\C\C=C/C=C/C=C/[C@@H](SC[C@H](N)C(=O)NCC(=O)O)[C@@H](O)CCCC(=O)O; assay: as §1

Activity [1]: substrate [+]
Molecule: CCCCC/C=C\C\C=C/C=C/C=C/[C@@H](SC[C@H](N)C(=O)O)[C@@H](O)CCCC(=O)O [LEUKOTRIEN E4]

activity at 100 µM [2]: 29%
Molecule: CC[C@]1(O)C[C@@H]2CN(CCc3c([nH]c4ccccc34)[C@@](C(=O)OC)(c3cc4c(cc3OC)N(C)[C@H]3[C@@](O)(C(=O)OC)[C@H](OC(C)=O)[C@]5(CC)C=CCN6CC[C@]43[C@@H]65)C2)C1 [VINBLASTINE]

activity at 100 µM [3]: 42%
Molecule: CC[C@]1(O)C[C@H]2CN(CCc3c([nH]c4ccccc34)[C@@](C(=O)OC)(c3cc4c(cc3OC)N(C=O)[C@H]3[C@@](O)(C(=O)OC)[C@H](OC(C)=O)[C@]5(CC)C=CCN6CC[C@]43[C@@H]65)C2)C1 [VINCRISTINE]

B1: ATP-binding cassette sub-family C member 2 (Rattus norvegicus) (protein)
chain: MDKFCNSTFWDLSLLESPEADLPLCFEQTVLVWIPLGFLWLLAPWQLYSVYRSRTKRSSITKFYLAKQVFVVFLLILAAIDLSLALTEDTGQATVPPVRYTNPILYLCTWLLVLAVQHSRQWCVRKNSWFLSLFWILSVLCGVFQFQTLIRALLKDSKSNMAYSYLFFVSYGFQIVLLILTAFSGPSDSTQTPSVTASFLSSITFSWYDRTVLKGYKHPLTLEDVWDIDEGFKTRSVTSKFEAAMTKDLQKARQAFQRRLQKSQRKPEATLHGLNKKQSQSQDVLVLEEAKKKSEKTTKDYPKSWLIKSLFKTFHVVILKSFILKLIHDLLVFLNPQLLKLLIGFVKSSNSYVWFGYICAILMFAVTLIQSFCLQSYFQHCFVLGMCVRTTVMSSIYKKALTLSNLARKQYTIGETVNLMSVDSQKLMDATNYMQLVWSSVIQITLSIFFLWRELGPSILAGVGVMVLLIPVNGVLATKIRNIQVQNMKNKDKRLKIMNEILSGIKILKYFAWEPSFQEQVQGIRKKELKNLLRFGQLQSLLIFILQITPILVSVVTFSVYVLVDSANVLNAEKAFTSITLFNILRFPLSMLPMVTSSILQASVSVDRLERYLGGDDLDTSAIRRVSNFDKAVKFSEASFTWDPDLEATIQDVNLDIKPGQLVAVVGTVGSGKSSLVSAMLGEMENVHGHITIQGSTAYVPQQSWIQNGTIKDNILFGSEYNEKKYQQVLKACALLPDLEILPGGDMAEIGEKGINLSGGQKQRVSLARAAYQDADIYILDDPLSAVDAHVGKHIFNKVVGPNGLLAGKTRIFVTHGIHFLPQVDEIVVLGKGTILEKGSYRDLLDKKGVFARNWKTFMKHSGPEGEATVNNDSEAEDDDDGLIPTMEEIPEDAASLAMRRENSLRRTLSRSSRSSSRRGKSLKNSLKIKNVNVLKEKEKEVEGQKLIKKEFVETGKVKFSIYLKYLQAVGWWSILFIILFYGLNNVAFIGSNLWLSAWTSDSDNLNGTNNSSSHRDMRIGVFGALGLAQGICLLISTLWSIYACRNASKALHGQLLTNILRAPMRFFDTTPTGRIVNRFSGDISTVDDLLPQTLRSWMMCFFGIAGTLVMICMATPVFAIIIIPLSILYISVQVFYVATSRQLRRLDSVTKSPIYSHFSETVTGLPIIRAFEHQQRFLAWNEKQIDINQKCVFSWITSNRWLAIRLELVGNLVVFCSALLLVIYRKTLTGDVVGFVLSNALNITQTLNWLVRMTSEAETNIVAVERISEYINVENEAPWVTDKRPPADWPRHGEIQFNNYQVRYRPELDLVLKGITCNIKSGEKVGVVGRTGAGKSSLTNCLFRILESAGGQIIIDGIDVASIGLHDLRERLTIIPQDPILFSGSLRMNLDPFNKYSDEEVWRALELAHLRSFVSGLQLGLLSEVTEGGDNLSIGQRQLLCLGRAVLRKSKILVLDEATAAVDLETDSLIQTTIRKEFSQCTVITIAHRLHTIMDSDKIMVLDNGKIVEYGSPEELLSNRGSFYLMAKEAGIENVNHTEL
Km [4]: 0.25 µM | Km [5]: 5.2 µM | Km [6]: 1.5 µM
